Source: patent US6787318B1, “Assay for evaluating the therapeutic effectiveness of agents in reducing Alzheimer's disease pathology” (Roskamp Research Institute, LLC, priority 1999, dated 2004)
“Also recorded” adds a separate entry of the source.

What was measured:
CD40 [1] = experiment: CD40 expression in Aβ-treated N9 and N60 microglial cells, flow cytometry; format: cell-based, murine
Source text: Mononuclear cells from AD patients secrete markedly higher levels of IFN-γ compared to age-matched controls (18).

CD40 [2] = experiment: CD40 protein in cultured HAEC, Western immunoblotting; format: cell-based, human; settings: Aβ 5 μM, IFN-γ 100 U/mL, 48 hours
Experimental: Cultured HAEC were plated at 1×10^6 cells/well in 100 mm culture dishes (Falcon, Becton Dickinson Inc. New Jersey). […] Cells were washed in ice-cold phosphate buffered saline (PBS) three times and lysed in an ice-cold lysis buffer containing 0.2 mM EDTA, 20 mM Tris/HCl (pH 8.0), 100 mM NaCl, 3% Nonidet P-40, 50 mM NaF, 10 mM sodium pyrophosphate, 2 mM orthovanadate, 10 μg/mL each of aprotinin and leupeptin and 1 mM PMSF. After incubation for thirty minutes on ice, samples were centrifuged at 15,000 rpm for fifteen minutes, and supernatants were collected. Total protein content was estimated using the Bio-Rad protein assay. An aliquot corresponding to 50 μg of total protein of each sample was separated by SDS-PAGE and transferred electrophoretically to Hy-bond PVDF membranes (Bio-Rad, California). Nonspecific antibody binding was blocked overnight at 4° C. with 5% non-fat dry milk in TBS (20 mM Tris, 500 mM NaCl, pH 7.5). […] Blots were also carried out on identical membranes with a reference anti-actin mouse monoclonal antibody (Boehringer Mannhem), which allowed for semi-quantitative CD40 protein determination. Densitometric analysis was performed for protein bands using the Fluor-S™ MultiImager with Quantity One™ software (Bio-Rad, California).

CD40 [3] = experiment: CD40 cell-surface expression on HAEC, flow cytometry; format: cell-based, human; settings: Aβ 500 nM, IFN-γ 10 U/mL; vs control peptide or Aβ-free
Experimental: Cultured HAEC were treated as described above. […] Cells were analyzed on a FACScan flow cytometer (Becton-Dickinson, Mountain View, Calif.) using LYSIS-II software. CD40-expressing cells are defined as percentage of CD40-staining cells minus the percentage of IgG1-staining cells.
CD40 expression between control peptide-treated and Aβ-free AEC was relatively similar.

HAEC [4] = experiment: Cytotoxicity in HAEC, LDH release assay; format: cell-based, human; settings: 500 nM, 48 hours
Experimental: Previous reports have shown that overexpression of amyloid precursor protein or exogenous addition of Aβ peptides can have cytotoxic effects on cultured endothelial cells.
In order to determine if ligation of endothelial CD40 could result in production of pro-inflammatory cytokines, IL-1β was measured following treatment with IFN-γ or Aβ peptides. […] There was not observe a significant induction of endothelial cell death by LDH release assay between treatment groups during the time course examined by IL-1β release assay (by One-way ANOVA, F(6,41)=0.322, p=0.921), supporting the hypothesis that stimulation of the CD40 pathway in endothelial cells results in an early pro-inflammatory cascade which later promotes cell injury, rather than induce cytotoxicity acutely.

CD40 [5] = experiment: CD40 cell ELISA on cultured HAEC; format: cell-based, human; settings: Aβ 50 nM to 10,000 nM; IFN-γ 5 to 500 U/mL; 48 hours
Experimental: To determine if CD40 expression on cultured HAEC was IFN-γ or Aβ dose-dependent, CD40 cell ELISA assays were performed according to published procedures. Briefly, cultured HAEC were plated at 2×10^4 cells/well in flat-bottom, 96-well tissue culture plates (Nunc-Immuno™ Plate, Denmark). […] Other HAEC were treated with a dose range (5 U/mL to 500 U/mL) of IFN-γ. […] Forty-eight hours post-treatment, plates were fixed overnight at 4° C. in 1% paraformaldehyde diluted in 1×PBS, washed three times with wash buffer (0.5% Tween 20 in 1×PBS), and subsequently incubated with […] of blocking buffer (10% fetal bovine serum in wash buffer) for one hour at 37° C. Cells were then treated with purified anti-human CD40 antibody ([…], PharMingen, Los Angeles, Calif.) in […] of blocking buffer for one hour at 37° C. Plates were washed four times with wash buffer. Biotinylated anti-mouse IgG1 (PharMingen, Los Angeles, Calif.; 1:2,000 dilution in blocking buffer, […]) was added and incubated for one hour at 37° C., followed by the addition of […] of a 1:3,000 dilution of HRP-Streptavidin (ZYMED, San Francisco, Calif.) for thirty minutes at 37° C. Plates were washed 4× with wash buffer and developed for twenty minutes at room temperature using the 3, 3′, 5, 5′-tetramethylbenzidine (TMB) one-step substrate system (DAKO, Carpinteria, Calif.) followed by the addition of 100 μL/well of 2N H2SO4 to stop the reaction. Absorbance was measured at 450 nm using a microplate spectrophotometer (SPECTRAmax 250, Molecular Devices, Sunnyvale, Calif.).

IL-1β [6] = experiment: Human IL-1β release ELISA, HAEC with or without CD40 ligation; format: cell-based; settings: for IL-1β release following CD40 ligation: 48 hour pre-treatment, then CD40L for eight hours; for IL-1β release in the absence of CD40L stimulation: Aβ 500 nM, IFN-γ 10 U/mL, 48 hours
Experimental: To examine if endothelial CD40 would be functional, cultured HAEC were plated at 5×10^4 cells/well in 6-well tissue culture plates (Nunc-Immuno™ Plate, Denmark) and incubated at 37° C. with human CD40L recombinant protein (CD40L, 0.5 ug/mL, kindly provided by Dr. Jean-Yves Bonnefoy, Glaxo Institute for Molecular Biology, Geneva) in fresh cultured media for eight hours, and cell-free supernatants were collected for IL-1β release assay. The assay for human IL-1β was performed in strict accordance with the manufacturer's instruction using the human Predicta™ IL-1β Kit (Genzyme). Absorbance at 450 nm was measured using a microplate spectrophotometer (SPECTRAmax 250, Molecular Devices, Sunnyvale, Calif.).
A second group of cells was subjected to these same treatments and incubated with CD40L ([…]) for eight hours following the initial 48 hour treatment period. IL-1β release was then quantified using a human IL-1β ELISA kit as described in materials and methods.

HAEC [7] = experiment: MTS cell death/proliferation in Aβ-treated HAEC; format: cell-based, human; settings: 10 or 20 μM
Experimental: In vitro measurement of Aβ-induced changes in expression of the inflammatory cell-surface molecules CD40 and […] in cultured HAEC and HASM cells was performed using a slightly modified ABC-based cell-ELISA (CELISA). […] After PBS washes, 4% neutral formalin solution (Sigma) was used for fixation of the cells. Following quenching of the endogenous peroxidase activity with 3% H2O2 and routine blocking of non-specific binding, the biotinylated specific secondary antibodies against the primary antibodies (goat anti-mouse or anti-rabbit IgG) were applied. The combination of EXTRAVIDIN® Proxidase and the subsequent color reaction was performed strictly according to the manufacturer's instructions in the EXTRAVIDIN® Peroxidase Staining Kit (Sigma). The absorbance of 405 nm was then measured using a microplate reader (SPECTRAmax 250, Molecular Devices). The optical density (O.D.) value for the wells in the absence of the primary antibody for each group was considered as background and subtracted as the blank. In addition, stimulation with IFN-γ for CD40 was included as a positive control in the appropriate plate. Since CD45 is not expressed by endothelial or smooth muscle cells, the assays for expression of CD45 in these Aβ-treated cells were used as negative controls throughout the experiment. […]

IL-1β [8] = experiment: IL-1β secretion from HAEC, ELISA; format: cell-based, human
Experimental: (§1) The assay for either IL-1β or IFN-γ was performed in strict accordance with the manufacturer's instructions for the respective assay kits.
(§2) The resulting cell culture media were assayed for IL-1β or IFN-γ using ELISA. […] The lowest effective concentration was determined to be 100 nM for IFN-γ ([…]). The lowest effective concentration was determined to be 100 nM for IFN-γ (p<0.01) and 1 μM for IL-1β (p<0.01).

IFN-γ = IFN-γ secretion from HAEC, ELISA; format: cell-based, human
Experimental: as §1
(§3) Activation of CD40 signalling can be achieved by stimulation with either CD40L or certain anti-CD40 mAbs. Since synthetic CD40L is not commercially available, one of the anti-CD40 mAbs (clone 3/23), which has been reported to activate CD40 signalling, was used to mimic the effect of interaction of CD40-CD40L. All Aβ-treated cells were incubated with 1 μg/ml anti-CD40 mAb […]) for four hours followed by CELISA.
as §2

IFN-γR [9] = experiment: IFN-γR expression in HAEC, cell-ELISA (CELISA) and Western blotting; format: cell-based, human; settings: for expression of IFN-γR on cytokine treatment: recombinant human cytokine
Experimental: (§4) In vitro measurement of Aβ-induced changes in expression of the inflammatory cell-surface molecules CD40 and […] in cultured HAEC and HASM cells was performed using a slightly modified ABC-based cell-ELISA (CELISA). […] After PBS washes, 4% neutral formalin solution (Sigma) was used for fixation of the cells. Following quenching of the endogenous peroxidase activity with 3% H2O2 and routine blocking of non-specific binding, the biotinylated specific secondary antibodies against the primary antibodies (goat anti-mouse or anti-rabbit IgG) were applied. The combination of EXTRAVIDIN® Proxidase and the subsequent color reaction was performed strictly according to the manufacturer's instructions in the EXTRAVIDIN® Peroxidase Staining Kit (Sigma). The absorbance of 405 nm was then measured using a microplate reader (SPECTRAmax 250, Molecular Devices). The optical density (O.D.) value for the wells in the absence of the primary antibody for each group was considered as background and subtracted as the blank. In addition, stimulation with IFN-γ for CD40 was included as a positive control in the appropriate plate. Since CD45 is not expressed by endothelial or smooth muscle cells, the assays for expression of CD45 in these Aβ-treated cells were used as negative controls throughout the experiment. In addition, to evaluate the degree of cell death or proliferation in the Aβ-treated, cells, parallel experiments were performed using the MTS (3-(4,5-dimethylthiazol-2-yl)-5-(3-carboxymethoxyphenyl)-2-(4-sulfophenyl)-2H-tetrazolium) cell-proliferation kit (Promega).
as §3
The total protein was estimated using the Bio-Rad protein assay. An aliquot corresponding to 100 μg of total protein of each sample was separated by SDS/PAGE (polyacrylamide gel electrophoresis) and transferred electrophoretically to PVDF filters. Non-specific binding of antibody was blocked with 5% non-fat dry milk, in 20 mM Tris/HCl, pH 7.5/150 mM NaCl/0.1% Triton X-100. Immunoblotting was carried out with the appropriate antibody followed by alkaline phosphatase-conjugated secondary anti-immunoglobulin antibodies. These were then developed by the chemiluminescence method (Bio-Rad).

IFN-γR [10] = experiment: IFN-γR expression in HASM cells, cell-ELISA (CELISA); format: cell-based, human
Experimental: as §4, §3

CD40 [11] = experiment: CD40 expression in HAEC, cell-ELISA (CELISA); format: cell-based, human; settings: for expression of CD40 on cytokine treatment: recombinant human cytokine
Experimental: as §4

neurons = settings: exogenous, at levels similar to those produced by activated microglia; cited from earlier work
TNF-α = TNF-α release from cultured microglia, TNF-α ELISA; format: cell-based, mice; settings: microglia pre-treated with 500 nM Aβ1-42
[12] = test system: primary cultured cortical neurons; experiment: Primary cultured microglia-mediated neuronal cell injury (micrographs, 51Cr release, LDH release); format: cell-based, mice; settings: primary cultured microglia with cortical neurons
Source text: CD45 positive cells (brown) are microglia, while neurofilament L-staining cells (red) are neurons. […] Results shown are from one of three independent experiments with similar results; FIG. 2E is a graph showing primary cultured microglia-mediated neuronal cell injury as evidenced by ^51Cr release. Data are reported as mean ^51Cr release values±1 SEM and n=9 for each condition presented. […] N=9 for each condition presented.
Having shown that Aβ peptides activate microglia through the CD40 pathway, it was then investigated whether activation of Aβ-pretreated microglia by ligation of CD40 could mediate neuronal cell injury (23,24).

cortical neurons = experiment: Cortical neurons incubated with treated N9 microglia, photomicrographs; format: cell-based, murine; settings: Aβ1-42 250 nM, CD40L 0.5 μg/ml
[13] = increasing concentrations, 24 hours

Aβ1-40: amyloid β peptide 1-40, freshly solubilized
CD40 expression on cultured microglial cells (CD40 [1]; 250 nM freshly solubilized peptide, N9 and N60 cells, vs control peptide or Aβ-free): significantly induce CD40 expression
increase in CD40 expression vs control peptide or Aβ-free, Western (CD40 [2]): ~2 fold
CD40 cell-surface expression, flow cytometry (CD40 [3]): significantly induce CD40 expression
cell injury, LDH release (HAEC [4]): no significant induction of cell injury
dose dependence of endothelial CD40 (CD40 [5]): marked increase in endothelial CD40 which is dose-dependent
IL-1β release following CD40 ligation (IL-1β [6]): synergistic effect
IL-1β release in the absence of CD40L stimulation (IL-1β [6]): not sufficient to elicit IL-1β
cell death, MTS assay, HAEC (HAEC [7]): significant amount of cell death
IL-1β secretion at largest dose (IL-1β [8]; 20 μM): has no effect
IL-1β secretion, dose dependence (IL-1β [8]; [13]): does not show a dose-dependent effect
IFN-γ production at largest dose (IFN-γ; 20 μM, vs control): does induce a significant production of IFN-γ
IFN-γ secretion, dose dependence (IFN-γ; [13]): does not show a dose-dependent effect
IFN-γR expression in HAEC (IFN-γR [9]; 48 hours): neither Aβ1-40 nor Aβ25-35 modulate the IFN-γR expression
IFN-γR expression in HASM cells (IFN-γR [10]; 48 hours): induces a significant effect on IFN-γR
IFN-γR expression in HASM cells on CD40 ligation by mAb (3/23) (IFN-γR [10]; Aβ-treated cells, 1 μg/ml mAb, four hours): synergistic
CD40 expression in HAEC, dose dependence (CD40 [11]): dose-dependently increase CD40 expression
lowest effective concentration for CD40 expression (CD40 [11]; HAEC): 10 µM

IFN-γ: Human IFN-γ recombinant protein (Genzyme)
effect of cytokine on Aβ-dependent CD40 expression (CD40 [1]; low dose 10 U/mL, Aβ-challenged microglia): synergistically enhances Aβ-dependent CD40 expression
increase in CD40 expression vs control peptide or Aβ-free, Western (CD40 [2]): ~2.5 fold
CD40 cell-surface expression, flow cytometry (CD40 [3]): significantly induce CD40 expression
dose dependence of endothelial CD40 (CD40 [5]): dose-dependent induction of endothelial CD40
IL-1β release following CD40 ligation (IL-1β [6]): synergistic effect; also recorded: more pronounced than Aβ's effect
IL-1β release in the absence of CD40L stimulation (IL-1β [6]): not sufficient to elicit IL-1β
expression of IFN-γR on cytokine treatment (IFN-γR [9]): up-regulate the expression of CD40 and IFN-γR
expression of CD40 on cytokine treatment (CD40 [11]): up-regulate the expression of CD40 and IFN-γR

TNF-α
neuronal injury and death, LDH release (neurons): dose-dependently induces neuronal injury and death

IL-1β: recombinant human cytokine
expression of IFN-γR on cytokine treatment (IFN-γR [9]): up-regulate the expression of CD40 and IFN-γR
expression of CD40 on cytokine treatment (CD40 [11]): up-regulate the expression of CD40 and IFN-γR

B1: CD40L: human CD40L recombinant protein (protein)
chain: ENSFEMQKGDQNPQIAAHVISEASSKTTSVLQWAEKGYYTMSNNLVTLENGKQLTVKRQGLYYIYAQVTFCSNREASSQAPFIASLCLKSPGRFERILLRAANTHSSAKPCGQQSIHLGGVFELQPGASVFVNVTDPSQVSHGTGFTSFGLLKL
TNF-α release on addition of CD40L (TNF-α): synergistically increases TNF-α release
neuronal degeneration / injury in micrographs [12]: not detectable
change in cortical neurons (cortical neurons): no change in cortical neurons
IL-1β release (IL-1β [6]; CD40L and Aβ-free condition): approximately 50 pg/mg total protein
